Experiments:
Type in all cases: biochemical
[1] = target: T1, MST2 (Homo sapiens, UniProt Q13188); assay: Caliper kinase profiling: MST2
T1 sequence (Q13188 1-491): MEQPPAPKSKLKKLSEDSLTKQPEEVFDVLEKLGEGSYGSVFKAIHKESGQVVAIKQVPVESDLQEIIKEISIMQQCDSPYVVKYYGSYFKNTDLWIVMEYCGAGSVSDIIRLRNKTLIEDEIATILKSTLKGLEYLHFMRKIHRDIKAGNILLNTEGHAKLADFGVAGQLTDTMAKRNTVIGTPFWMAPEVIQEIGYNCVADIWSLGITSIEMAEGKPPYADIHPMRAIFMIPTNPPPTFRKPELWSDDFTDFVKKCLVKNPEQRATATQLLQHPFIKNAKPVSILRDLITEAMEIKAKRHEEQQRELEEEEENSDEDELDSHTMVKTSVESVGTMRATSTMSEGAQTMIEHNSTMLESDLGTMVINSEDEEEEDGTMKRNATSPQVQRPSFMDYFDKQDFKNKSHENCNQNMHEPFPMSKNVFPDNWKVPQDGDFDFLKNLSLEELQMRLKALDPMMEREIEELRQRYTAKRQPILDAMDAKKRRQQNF

[2] = target: FLT4 (Homo sapiens, UniProt P35916); assay: Caliper kinase profiling: FLT4; details: FLT4, 1 μM; read-out: Average % Inh @ 1 μM
[3] = target: FYN (Homo sapiens, UniProt P06241); assay: Caliper kinase profiling: FYN
[4] = target: FGFR3(K650E) (Homo sapiens, UniProt P22607, K650E); assay: Caliper kinase profiling: FGFR3(K650E); details: read-out: Average % Inh @ 1 μM
[5] = target: T2, AMPK-α2/β1/γ1 (Homo sapiens, UniProt P54646); assay: Caliper kinase profiling: AMPK-α2/β1/γ1
T2 construct: purchased Caliper LifeSciences (ProfilerPro Kinase Selectivity Assay Kits)

[6] = target: ITK (Homo sapiens, UniProt Q08881); assay: Caliper kinase profiling: ITK; details: read-out: Average % Inh @ 1 μM
[7] = target: T3, TYRO3 (Homo sapiens, UniProt Q06418); assay: Caliper kinase profiling: TYRO3
T3 sequence (Q06418 41-890): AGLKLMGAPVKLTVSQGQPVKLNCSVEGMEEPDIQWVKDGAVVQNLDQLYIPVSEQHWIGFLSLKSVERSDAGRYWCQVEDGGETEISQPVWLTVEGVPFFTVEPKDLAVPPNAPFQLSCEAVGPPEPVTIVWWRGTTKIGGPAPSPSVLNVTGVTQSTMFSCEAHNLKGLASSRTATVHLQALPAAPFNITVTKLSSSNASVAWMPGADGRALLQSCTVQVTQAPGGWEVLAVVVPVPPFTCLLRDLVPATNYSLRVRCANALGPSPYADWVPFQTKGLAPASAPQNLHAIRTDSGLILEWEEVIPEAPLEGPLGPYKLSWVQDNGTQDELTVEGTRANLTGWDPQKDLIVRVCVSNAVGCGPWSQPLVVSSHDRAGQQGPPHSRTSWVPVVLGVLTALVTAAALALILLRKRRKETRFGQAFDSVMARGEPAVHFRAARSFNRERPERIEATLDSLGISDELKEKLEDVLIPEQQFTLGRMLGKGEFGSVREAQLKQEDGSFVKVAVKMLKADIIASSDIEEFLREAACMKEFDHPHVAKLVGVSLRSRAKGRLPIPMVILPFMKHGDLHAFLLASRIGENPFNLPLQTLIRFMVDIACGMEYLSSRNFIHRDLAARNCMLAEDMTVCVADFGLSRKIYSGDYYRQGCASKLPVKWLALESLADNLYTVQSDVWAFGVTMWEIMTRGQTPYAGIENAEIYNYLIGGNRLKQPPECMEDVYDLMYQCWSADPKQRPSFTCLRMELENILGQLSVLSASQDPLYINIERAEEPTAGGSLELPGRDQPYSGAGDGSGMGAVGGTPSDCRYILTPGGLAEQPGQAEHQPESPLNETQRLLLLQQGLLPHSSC

[8] = target: JAK2 (Homo sapiens, UniProt O60674); assay: Caliper kinase profiling: JAK2; details: JAK2, 1 μM; read-out: Average % Inh @ 1 μM
[9] = target: LYN (Homo sapiens, UniProt P07948); assay: Caliper kinase profiling: LYN
[10] = target: T4, MST1 (Homo sapiens, UniProt Q13043); assay: Caliper kinase profiling: MST1
T4 sequence (Q13043 1-487): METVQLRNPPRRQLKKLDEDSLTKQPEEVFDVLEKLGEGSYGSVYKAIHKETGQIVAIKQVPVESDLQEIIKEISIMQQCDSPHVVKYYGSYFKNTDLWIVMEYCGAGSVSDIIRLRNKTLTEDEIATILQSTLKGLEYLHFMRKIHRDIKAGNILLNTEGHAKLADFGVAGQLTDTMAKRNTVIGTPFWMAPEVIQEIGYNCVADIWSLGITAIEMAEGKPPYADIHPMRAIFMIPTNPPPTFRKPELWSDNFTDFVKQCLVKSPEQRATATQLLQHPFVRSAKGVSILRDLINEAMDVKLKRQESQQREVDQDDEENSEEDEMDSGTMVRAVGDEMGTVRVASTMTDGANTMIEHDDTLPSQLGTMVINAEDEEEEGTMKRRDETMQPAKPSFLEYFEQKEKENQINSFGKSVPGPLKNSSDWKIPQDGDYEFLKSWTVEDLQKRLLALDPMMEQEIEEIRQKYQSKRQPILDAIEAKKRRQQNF

[11] = system: AMPK; assay: Caliper kinase profiling: AMPK
Experimental: The compound was tested at concentrations of 1.0×10^−8 and 1.0×10^−9 M in the RapidKinase192™ panel in duplicate. […] The screening was performed using the Caliper EZReader2, a 4-sipper LabChip, and ProfilerPro Kinase Selectivity Assay Kits 1 and 2. The assay measures the conversion of a fluorescent peptide substrate to a phosphorylated product. Briefly, the reaction mixture was introduced through a capillary sipper onto the microfluidic chip, where the substrate and product were electrophoretically separated and detected by laser-induced fluorescence. The time-dependent fluorescence signal indicates the extent of the reaction.

[12] = 10 nM, read-out: Average % Inh @ 10 nM
[13] = 100 nM, read-out: Average % Inh @ 100 nM
[14] = 1 μM, read-out: Average % Inh @ 1 μM

T2 sequence (P54646 whole entry): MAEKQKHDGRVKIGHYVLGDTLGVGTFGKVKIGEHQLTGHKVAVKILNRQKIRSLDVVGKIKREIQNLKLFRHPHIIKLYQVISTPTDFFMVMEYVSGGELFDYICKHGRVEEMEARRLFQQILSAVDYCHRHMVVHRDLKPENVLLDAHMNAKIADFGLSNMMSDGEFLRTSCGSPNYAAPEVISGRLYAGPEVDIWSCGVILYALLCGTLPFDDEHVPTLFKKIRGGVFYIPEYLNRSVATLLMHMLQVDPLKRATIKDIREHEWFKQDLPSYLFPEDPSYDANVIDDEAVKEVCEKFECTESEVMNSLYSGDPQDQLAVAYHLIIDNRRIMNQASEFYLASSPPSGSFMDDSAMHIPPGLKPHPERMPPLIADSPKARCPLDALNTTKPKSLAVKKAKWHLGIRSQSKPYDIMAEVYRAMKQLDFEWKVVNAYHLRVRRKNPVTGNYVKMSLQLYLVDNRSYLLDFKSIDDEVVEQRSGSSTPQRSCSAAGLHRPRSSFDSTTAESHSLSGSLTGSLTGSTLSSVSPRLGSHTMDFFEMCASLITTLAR
T2 sequence (Q9Y478 whole entry partner): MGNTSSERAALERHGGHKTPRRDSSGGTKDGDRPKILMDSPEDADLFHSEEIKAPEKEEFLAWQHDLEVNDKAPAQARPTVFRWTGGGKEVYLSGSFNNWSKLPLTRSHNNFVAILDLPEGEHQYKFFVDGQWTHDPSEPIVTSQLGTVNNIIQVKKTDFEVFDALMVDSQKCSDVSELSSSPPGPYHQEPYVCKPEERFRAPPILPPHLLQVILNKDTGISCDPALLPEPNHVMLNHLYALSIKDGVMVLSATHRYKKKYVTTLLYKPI
T2 sequence (P54619 whole entry partner): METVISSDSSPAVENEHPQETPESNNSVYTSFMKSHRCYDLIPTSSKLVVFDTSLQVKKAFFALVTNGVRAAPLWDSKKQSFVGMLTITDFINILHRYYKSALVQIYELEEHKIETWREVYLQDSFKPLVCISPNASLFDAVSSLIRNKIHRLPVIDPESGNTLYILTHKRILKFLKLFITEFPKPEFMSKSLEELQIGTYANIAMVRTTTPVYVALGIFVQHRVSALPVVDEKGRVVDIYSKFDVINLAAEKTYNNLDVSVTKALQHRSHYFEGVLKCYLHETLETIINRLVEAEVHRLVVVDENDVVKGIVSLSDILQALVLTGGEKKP
Chain of LYN (P07948 whole entry): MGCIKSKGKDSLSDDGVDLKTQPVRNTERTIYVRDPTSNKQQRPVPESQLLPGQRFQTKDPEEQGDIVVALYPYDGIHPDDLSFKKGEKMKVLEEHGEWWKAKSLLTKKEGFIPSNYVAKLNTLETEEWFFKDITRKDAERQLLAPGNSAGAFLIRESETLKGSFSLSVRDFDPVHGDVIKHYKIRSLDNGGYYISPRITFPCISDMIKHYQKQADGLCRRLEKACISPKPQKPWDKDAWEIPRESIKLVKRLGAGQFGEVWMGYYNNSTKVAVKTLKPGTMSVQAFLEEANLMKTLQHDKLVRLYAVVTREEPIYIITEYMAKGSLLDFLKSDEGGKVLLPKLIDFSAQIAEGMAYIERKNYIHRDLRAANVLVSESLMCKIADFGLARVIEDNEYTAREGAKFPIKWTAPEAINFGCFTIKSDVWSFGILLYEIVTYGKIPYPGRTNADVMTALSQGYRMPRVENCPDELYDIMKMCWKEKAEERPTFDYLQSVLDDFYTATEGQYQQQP
Chain of FYN (P06241 whole entry): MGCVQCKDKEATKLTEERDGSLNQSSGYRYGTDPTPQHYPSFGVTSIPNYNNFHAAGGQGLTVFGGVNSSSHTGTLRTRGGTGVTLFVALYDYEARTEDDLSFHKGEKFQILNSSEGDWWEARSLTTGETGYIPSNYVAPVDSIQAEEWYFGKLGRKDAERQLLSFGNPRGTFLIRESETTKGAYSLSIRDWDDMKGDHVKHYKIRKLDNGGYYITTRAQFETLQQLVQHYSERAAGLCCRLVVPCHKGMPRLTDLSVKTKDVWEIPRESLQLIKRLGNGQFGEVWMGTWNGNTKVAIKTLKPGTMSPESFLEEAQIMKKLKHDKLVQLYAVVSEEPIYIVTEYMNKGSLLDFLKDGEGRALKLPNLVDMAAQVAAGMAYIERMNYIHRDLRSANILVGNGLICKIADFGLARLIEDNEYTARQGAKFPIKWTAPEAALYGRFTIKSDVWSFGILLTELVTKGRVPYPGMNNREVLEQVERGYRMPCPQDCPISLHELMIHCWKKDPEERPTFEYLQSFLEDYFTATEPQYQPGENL
Chain of FGFR3(K650E) (P22607 23-806 K650E): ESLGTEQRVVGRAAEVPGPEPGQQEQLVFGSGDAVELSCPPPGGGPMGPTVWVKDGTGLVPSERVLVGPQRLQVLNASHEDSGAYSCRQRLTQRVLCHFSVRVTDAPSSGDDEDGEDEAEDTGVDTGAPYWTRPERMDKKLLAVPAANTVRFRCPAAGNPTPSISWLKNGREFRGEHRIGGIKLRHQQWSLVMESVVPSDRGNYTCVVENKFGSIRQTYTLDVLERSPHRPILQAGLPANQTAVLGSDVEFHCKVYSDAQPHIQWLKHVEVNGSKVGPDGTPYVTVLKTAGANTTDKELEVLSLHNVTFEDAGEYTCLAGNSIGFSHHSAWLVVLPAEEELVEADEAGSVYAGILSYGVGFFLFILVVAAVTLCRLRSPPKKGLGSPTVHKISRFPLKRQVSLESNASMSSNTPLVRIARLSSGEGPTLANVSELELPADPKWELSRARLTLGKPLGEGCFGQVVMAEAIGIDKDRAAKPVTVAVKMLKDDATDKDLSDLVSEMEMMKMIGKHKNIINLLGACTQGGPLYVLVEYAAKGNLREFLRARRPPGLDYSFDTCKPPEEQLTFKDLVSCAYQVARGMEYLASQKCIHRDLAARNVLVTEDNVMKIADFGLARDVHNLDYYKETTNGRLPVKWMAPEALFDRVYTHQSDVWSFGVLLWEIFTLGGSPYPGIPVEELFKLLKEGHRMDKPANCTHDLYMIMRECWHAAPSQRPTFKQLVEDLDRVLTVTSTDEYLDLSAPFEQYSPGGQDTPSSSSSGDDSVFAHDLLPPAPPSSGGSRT
Chain of FLT4 (P35916 25-1363): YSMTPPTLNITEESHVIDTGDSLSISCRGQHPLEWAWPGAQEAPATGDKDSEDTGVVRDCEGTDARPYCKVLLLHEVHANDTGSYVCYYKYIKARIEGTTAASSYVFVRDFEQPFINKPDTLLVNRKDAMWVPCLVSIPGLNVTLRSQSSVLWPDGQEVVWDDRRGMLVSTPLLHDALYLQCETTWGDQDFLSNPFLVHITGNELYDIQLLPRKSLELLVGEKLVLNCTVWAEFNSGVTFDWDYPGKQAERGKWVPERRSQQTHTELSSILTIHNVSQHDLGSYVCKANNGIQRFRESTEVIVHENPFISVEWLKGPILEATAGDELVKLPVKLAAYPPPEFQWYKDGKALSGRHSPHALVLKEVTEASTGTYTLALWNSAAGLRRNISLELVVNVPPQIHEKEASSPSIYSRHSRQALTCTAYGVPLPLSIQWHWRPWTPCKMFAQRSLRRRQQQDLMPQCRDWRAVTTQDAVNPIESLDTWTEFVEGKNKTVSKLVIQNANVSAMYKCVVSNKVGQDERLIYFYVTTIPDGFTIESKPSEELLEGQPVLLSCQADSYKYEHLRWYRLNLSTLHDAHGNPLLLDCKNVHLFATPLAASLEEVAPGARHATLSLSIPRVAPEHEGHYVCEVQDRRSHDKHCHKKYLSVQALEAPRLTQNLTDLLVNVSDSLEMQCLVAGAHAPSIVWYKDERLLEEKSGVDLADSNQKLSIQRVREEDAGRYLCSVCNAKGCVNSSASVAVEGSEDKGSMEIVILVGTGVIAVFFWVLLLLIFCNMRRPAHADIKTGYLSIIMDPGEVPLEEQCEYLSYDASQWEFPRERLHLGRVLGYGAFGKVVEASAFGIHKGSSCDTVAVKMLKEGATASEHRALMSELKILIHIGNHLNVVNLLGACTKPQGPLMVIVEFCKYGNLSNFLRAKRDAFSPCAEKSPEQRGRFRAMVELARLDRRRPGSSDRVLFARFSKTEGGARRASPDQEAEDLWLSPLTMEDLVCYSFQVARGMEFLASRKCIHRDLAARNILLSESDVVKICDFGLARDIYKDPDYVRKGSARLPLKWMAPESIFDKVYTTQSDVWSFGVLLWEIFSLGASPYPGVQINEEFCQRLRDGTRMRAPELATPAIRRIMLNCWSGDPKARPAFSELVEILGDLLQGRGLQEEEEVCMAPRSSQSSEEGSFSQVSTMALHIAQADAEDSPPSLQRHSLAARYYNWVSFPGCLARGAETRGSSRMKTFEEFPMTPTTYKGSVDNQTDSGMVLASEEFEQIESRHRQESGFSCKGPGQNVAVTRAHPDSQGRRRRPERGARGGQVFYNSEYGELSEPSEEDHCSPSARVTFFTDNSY
Chain of ITK (Q08881 whole entry): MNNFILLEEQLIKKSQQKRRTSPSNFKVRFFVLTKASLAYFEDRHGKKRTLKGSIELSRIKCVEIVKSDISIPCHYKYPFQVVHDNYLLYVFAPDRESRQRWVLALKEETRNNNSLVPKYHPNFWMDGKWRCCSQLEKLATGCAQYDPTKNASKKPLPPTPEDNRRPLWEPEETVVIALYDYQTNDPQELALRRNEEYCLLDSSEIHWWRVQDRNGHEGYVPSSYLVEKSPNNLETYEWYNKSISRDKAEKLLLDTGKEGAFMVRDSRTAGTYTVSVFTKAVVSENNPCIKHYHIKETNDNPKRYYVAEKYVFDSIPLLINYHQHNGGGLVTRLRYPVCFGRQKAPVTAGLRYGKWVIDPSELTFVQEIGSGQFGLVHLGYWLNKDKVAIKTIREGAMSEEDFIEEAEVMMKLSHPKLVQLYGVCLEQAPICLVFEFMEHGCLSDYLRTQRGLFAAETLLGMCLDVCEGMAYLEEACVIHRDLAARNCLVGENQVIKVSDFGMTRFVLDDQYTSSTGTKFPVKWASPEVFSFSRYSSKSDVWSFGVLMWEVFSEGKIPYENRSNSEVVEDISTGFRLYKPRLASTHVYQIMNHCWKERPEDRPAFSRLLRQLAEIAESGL

Question: How did the inhibition at 0.01 µM ([1]; MST2, 10 nM, read-out: Average % Inh @ 10 nM) turn out when `O=C(Nc1ccc(F)nc1)C1CCCN1c1nc2c(c(Nc3cc(C4CC4)[nH]n3)n1)CCC2` (single isomer, unassigned) [Compound 2b, 1-(4-(5-cyclopropyl-1H-pyrazol-3-ylamino)-6,7-dihydro-5H-cyclopenta[d]pyrimidin-2-yl)-N-(6-fluoropyridin-3-yl)pyrrolidine-2-carboxamide] was run?
Answer: The inhibition at 0.01 µM was < 39%.

Question: What about the inhibition at 0.1 µM ([1]; MST2, 100 nM, read-out: Average % Inh @ 100 nM) of the same molecule?
Answer: Its inhibition at 0.1 µM is < 39%.

Question: What about the inhibition at 1 µM ([1]; MST2, 1 μM, read-out: Average % Inh @ 1 μM) of the same molecule?
Answer: Its inhibition at 1 µM is > 60%.

Question: What about the inhibition at 1 µM [2] of the same molecule?
Answer: The inhibition at 1 µM was 40 to 59%.

Question: What about the inhibition at 0.01 µM [3, 12] of the same molecule?
Answer: The inhibition at 0.01 µM was < 39%.

Question: And the inhibition at 0.1 µM [3, 13]?
Answer: Its inhibition at 0.1 µM is > 60%.

Question: What about the inhibition at 1 µM [3, 14] of the same molecule?
Answer: Its inhibition at 1 µM is > 60%.

Question: What about the inhibition at 1 µM [4] of the same molecule?
Answer: The inhibition at 1 µM was > 60%.

Question: And the inhibition at 0.01 µM ([5]; AMPK-α2/β1/γ1, 10 nM, read-out: Average % Inh @ 10 nM)?
Answer: The inhibition at 0.01 µM was < 39%.

Question: And the inhibition at 0.1 µM ([5]; AMPK-α2/β1/γ1, 100 nM, read-out: Average % Inh @ 100 nM)?
Answer: Its inhibition at 0.1 µM is 40 to 59%.

Question: What about the inhibition at 1 µM ([5]; AMPK-α2/β1/γ1, 1 μM, read-out: Average % Inh @ 1 μM) of the same molecule?
Answer: Its inhibition at 1 µM is > 60%.

Question: What about the inhibition at 1 µM [6] of the same molecule?
Answer: Its inhibition at 1 µM is 40 to 59%.

Question: And the inhibition at 0.01 µM ([7]; TYRO3, 10 nM, read-out: Average % Inh @ 10 nM)?
Answer: Its inhibition at 0.01 µM is < 39%.

Question: And the inhibition at 0.1 µM ([7]; TYRO3, 100 nM, read-out: Average % Inh @ 100 nM)?
Answer: The inhibition at 0.1 µM was < 39%.

Question: What about the inhibition at 1 µM ([7]; TYRO3, 1 μM, read-out: Average % Inh @ 1 μM) of the same molecule?
Answer: The inhibition at 1 µM was > 60%.

Question: What about the inhibition at 1 µM [8] of the same molecule?
Answer: The inhibition at 1 µM was > 60%.

Question: And the inhibition at 0.01 µM [9, 12]?
Answer: The inhibition at 0.01 µM was < 39%.

Question: And the inhibition at 0.1 µM [9, 13]?
Answer: Its inhibition at 0.1 µM is 40 to 59%.

Question: And the inhibition at 1 µM [9, 14]?
Answer: Its inhibition at 1 µM is > 60%.

Question: And the inhibition at 0.01 µM ([10]; MST1, 10 nM, read-out: Average % Inh @ 10 nM)?
Answer: The inhibition at 0.01 µM was < 39%.

Question: What about the inhibition at 0.1 µM ([10]; MST1, 100 nM, read-out: Average % Inh @ 100 nM) of the same molecule?
Answer: The inhibition at 0.1 µM was 40 to 59%.

Question: And the inhibition at 1 µM ([10]; MST1, 1 μM, read-out: Average % Inh @ 1 μM)?
Answer: Its inhibition at 1 µM is > 60%.

Question: What about the “Average % Inh @ 10 nM” value ([11]; 10 nM) of the same molecule?
Answer: The value was “+ (+=Low)”.

Question: And the “Average % Inh @ 100 nM” value ([11]; 100 nM)?
Answer: The value was “++ (++=Med)”.

Question: What about the “Average % Inh @ 1 μM” value ([11]; 1 μM) of the same molecule?
Answer: The value was “+++ (+++=High)”.

Reference: patent publication US9422267B2, “Fused pyrimidine compounds and use thereof” (Medivation Technologies, Inc., priority 2012, dated 2016)
